Measurements published in ChEMBL document CHEMBL2203027, “Lanostanoids from fungi: a group of potential anticancer compounds” (J Nat Prod, 2012).
Values after ≈ are worked out from the molar mass of the structure shown.

How the values were obtained:
HeLa = test: Cytotoxicity against human HeLa cells; assay type: functional, cell-based
[1] = Cytotoxicity against mouse Meth-A cells; assay type: functional, cell-based; conditions: read-out: ED50 (the source's name)
[2] = Cytotoxicity against mouse LLC cells; assay type: functional, cell-based; conditions: Lewis lung carcinoma, read-out: ED50 (the source's name)
Mus musculus = organism: Mus musculus; test: Inhibition of TPA-induced tumor progression in mouse skin at 0.2 umol measured at week 20; assay type: functional
HL-60 = test: Cytotoxicity against human HL60 cells; assay type: functional, cell-based
L1210 = test: Cytotoxicity against mouse L1210 cells; assay type: functional, cell-based

Row | SMILES | IC50 (HeLa; Homo sapiens, HeLa) | also measured
1 | C[C@H](CC[C@@H](O)C(C)(C)O)[C@H]1CC[C@@]2(C)C3=CC[C@H]4C(C)(C)C(=O)CC[C@]4(C)C3=CC[C@]12C [GANODERMANONDIOL] | 11 µM | EC50 [1]: 3.4 µg/mL (≈ 7.44 µM); EC50 [2]: 2.3 µg/mL (≈ 5.04 µM)
2 | CC(=O)[C@H]1CC(=O)[C@@]2(C)C3=C(C(=O)C[C@]12C)[C@@]1(C)CC[C@H](O)C(C)(C)[C@@H]1C[C@@H]3O [LUCIDONE A] | 101 µM | –
3 | C[C@H](CCC(=O)O)[C@H]1CC[C@@]2(C)C3=C(CC[C@]12C)[C@@]1(C)CCC(=O)C(C)(C)[C@@H]1CC3=O | 11 µM | –
4 | CC(CC(=O)C[C@@H](C)[C@H]1CC(=O)[C@@]2(C)C3=C(C(=O)C[C@]12C)[C@@]1(C)CCC(=O)C(C)(C)[C@@H]1C[C@@H]3O)C(=O)O (stereo in doubt; 10) [GANODERIC ACID D] | – | IC50 (HeLa; hela): 31 µM
5 | CC(=O)OC1C[C@H]([C@H](C)CC/C=C(/C)C(=O)O)[C@@]2(C)CC=C3C(=CC[C@H]4C(C)(C)C(=O)CC[C@]34C)[C@]12C (stereo partly drawn) | > 300 µM | –
6 | CCOC(=O)C(C)CC(=O)C[C@@H](C)[C@H]1CC(=O)[C@@]2(C)C3=C(C(=O)[C@@H](OC(C)=O)[C@]12C)[C@@]1(C)CCC(=O)C(C)(C)[C@@H]1CC3=O (stereo partly drawn) | 11 µM | –
7 | CC(CC(=O)C[C@@H](C)[C@H]1C[C@H](O)[C@@]2(C)C3=C(C(=O)C[C@]12C)[C@@]1(C)CCC(=O)C(C)(C)[C@@H]1CC3)C(=O)O (stereo partly drawn) [GANOLUCIDIC ACID A] | 101 µM | –
8 | C[C@H](CC[C@H](O)[C@](C)(O)CO)[C@H]1CC[C@@]2(C)C3=CC[C@H]4C(C)(C)C(=O)CC[C@]4(C)C3=CC[C@]12C [GANODERMANONTRIOL] | 11 µM | EC50 [1]: 2.3 µg/mL (≈ 4.87 µM); EC50 [2]: 2.3 µg/mL (≈ 4.87 µM)
9 | C/C(=C\C(=O)CC(C)C(=O)O)[C@H]1C[C@H](O)[C@@]2(C)C3=C(C(=O)C[C@]12C)[C@@]1(C)CCC(=O)C(C)(C)[C@@H]1C[C@@H]3O (stereo partly drawn) [GANODERENIC ACID A] | > 300 µM | –
10 | C/C(=C\[C@@H](O)C[C@@H](C)[C@H]1CC(=O)[C@@]2(C)C3=C(C(=O)[C@@H](O)[C@]12C)[C@@]1(C)CC[C@H](O)C(C)(C)[C@@H]1CC3=O)C(=O)O [GANODERIC ACID THETA] | – | EC50 [1]: 2.3 µg/mL (≈ 4.33 µM); EC50 [2]: 2.3 µg/mL (≈ 4.33 µM)
11 | CC(=O)O[C@@H]1C(=O)C2=C([C@@H](O)C[C@H]3C(C)(C)C(=O)CC[C@]23C)[C@]2(C)C(=O)C[C@H](/C(C)=C\C(=O)CC(C)C(=O)O)[C@@]12C (stereo partly drawn) | > 300 µM | –
12 | COC(=O)CC[C@@H](C)[C@H]1CC(=O)[C@@]2(C)C3=C(C(=O)[C@@H](O)[C@]12C)[C@@]1(C)CC[C@H](O)C(C)(C)[C@@H]1C[C@@H]3O [METHYL LUCIDENATE C] | 101 µM | –
13 | C[C@H](CCC(=O)O)[C@H]1CC(=O)[C@@]2(C)C3=C(C(=O)C[C@]12C)[C@@]1(C)CCC(=O)C(C)(C)[C@@H]1C[C@@H]3O [LUCIDENIC ACID A] | > 300 µM | –
14 | C/C(=C\C(=O)CC(C)C(=O)O)[C@H]1CC(=O)[C@@]2(C)C3=C(C(=O)C[C@]12C)[C@@]1(C)CCC(=O)C(C)(C)[C@@H]1CC3=O (stereo partly drawn) [GANODERENICACID F] | 202 µM | –
15 | CC(CC(=O)C[C@@H](C)[C@H]1CC(=O)[C@@]2(C)C3=C(C(=O)C[C@]12C)[C@@]1(C)CCC(=O)C(C)(C)[C@@H]1C[C@@H]3O)C(=O)O (stereo in doubt; 81) [GANODERIC ACID D] | – | IC50 (HeLa; hela): > 300 µM
16 | CC(CC(=O)C[C@@H](C)[C@H]1C[C@H](O)[C@@]2(C)C3=C(C(=O)C[C@]12C)[C@@]1(C)CCC(=O)C(C)(C)[C@@H]1CC3=O)C(=O)O (stereo partly drawn) [GANODERIC ACID J] | > 300 µM | –
17 | COC(=O)C(C)CC(=O)C[C@@H](C)[C@H]1CC(=O)[C@@]2(C)C3=C(C(=O)[C@@H](OC(C)=O)[C@]12C)[C@@]1(C)CC[C@H](O)C(C)(C)[C@@H]1C[C@@H]3O (stereo partly drawn) | 101 µM | –
18 | CC(CC(=O)C[C@@H](C)[C@H]1CC(=O)[C@@]2(C)C3=C(C(=O)C[C@]12C)[C@@]1(C)CC[C@H](O)C(C)(C)[C@@H]1CC3=O)C(=O)O (stereo partly drawn) [GANODERIC ACID AM1] | 202 µM | –
19 | C=C(C)[C@@H]1CC=C2C(=CC[C@]3(C)[C@@H]([C@@H](CCC=C(C)C)C(=O)O)[C@H](O)C[C@@]23C)[C@@]1(C)CCC(=O)O [PORICOIC ACID B] | – | inhibition (INH) (Mus musculus): 68%
20 | COC(=O)[C@H](C)CC(=O)C[C@@H](C)[C@H]1CC(=O)[C@@]2(C)C3=C(C(=O)C[C@]12C)[C@@]1(C)CC[C@H](O)C(C)(C)[C@@H]1C[C@@H]3O [GANODERIC ACID B METHYL ESTER] | 101 µM | –
21 | CC(CC(=O)C[C@@H](C)[C@H]1CC(=O)[C@@]2(C)C3=C(C(=O)[C@@H](O)[C@]12C)[C@@]1(C)CCC(=O)C(C)(C)[C@@H]1CC3=O)C(=O)O (stereo partly drawn) | > 300 µM | –
22 | C/C(=C\CC[C@@H](C)[C@H]1CC[C@@]2(C)C3=C(CC[C@]12C)[C@@]1(C)CC[C@H](O)C(C)(C)[C@@H]1CC3=O)CO [LUCIDADIOL] | 5 µM | –
23 | CC(CC(=O)C[C@@H](C)[C@H]1CC(=O)[C@@]2(C)C3=C(C(=O)[C@@H](O)[C@]12C)[C@@]1(C)CCC(=O)C(C)(C)[C@@H]1C[C@@H]3O)C(=O)O (stereo partly drawn) | > 300 µM | –

Row | SMILES | IC50 (HeLa; Homo sapiens, HeLa) | also measured
24 | C[C@H](CC(=O)C[C@@H](C)[C@H]1CC(=O)[C@@]2(C)C3=C(C(=O)C[C@]12C)[C@@]1(C)CCC(=O)C(C)(C)[C@@H]1CC3=O)C(=O)O [GANODERIC ACID E] | 101 µM | –
25 | CC(CC(=O)C[C@@H](C)[C@H]1CC(=O)[C@@]2(C)C3=C(C(=O)C[C@]12C)[C@@]1(C)CC[C@H](O)C(C)(C)[C@@H]1C[C@@H]3O)C(=O)O (stereo partly drawn) [GANODERIC ACID B] | 202 µM | –
26 | COC(=O)C(C)CC(=O)C[C@@H](C)[C@H]1CC(=O)[C@@]2(C)C3=C(C(=O)[C@@H](OC(C)=O)[C@]12C)[C@@]1(C)CC[C@H](O)C(C)(C)[C@@H]1CC3=O (stereo partly drawn) [METHYL GANODERATE H] | 11 µM | –
27 | C[C@H](CC(=O)C[C@@H](C)[C@H]1C[C@H](O)[C@@]2(C)C3=C(C(=O)C[C@]12C)[C@@]1(C)CCC(=O)C(C)(C)[C@@H]1C[C@@H]3O)C(=O)O [GANODERIC ACID A] | > 300 µM | –
28 | C=C(C)[C@@H]1CCC2=C(CC[C@]3(C)[C@@H]([C@@H](CCC=C(C)C)C(=O)O)[C@H](O)C[C@@]23C)[C@@]1(C)CCC(=O)O [PORICOIC ACID G] | – | GI50 (HL-60): 0.0393 µM
29 | CC(CC(=O)C[C@@H](C)[C@H]1CC(=O)[C@@]2(C)C3=C(C(=O)[C@@H](O)[C@]12C)[C@@]1(C)CC[C@H](O)C(C)(C)[C@@H]1C[C@@H]3O)C(=O)O (stereo partly drawn) [GANODERIC ACID G] | 101 µM | –
30 | C/C(=C\CC[C@@H](C)[C@H]1C[C@H](O)[C@@]2(C)C3=CC[C@H]4C(C)(C)C(=O)CC[C@]4(C)C3=CC[C@]12C)C(=O)O | 11 µM | –
31 | C/C(=C\CC[C@@H](C)[C@H]1CC[C@@]2(C)C3=CC[C@H]4C(C)(C)[C@@H](O)CC[C@]4(C)C3=CC[C@]12C)CO [GANODEROL B] | 101 µM | –
32 | C[C@H](CC[C@H](O)C(C)(C)O)[C@H]1CC[C@@]2(C)C3=C(CC[C@]12C)[C@@]1(C)CCC(=O)C(C)(C)[C@@H]1CC3=O [LUCIDUMOL A] | 11 µM | EC50 [1]: 2.3 µg/mL (≈ 4.87 µM); EC50 [2]: 2.3 µg/mL (≈ 4.87 µM)
33 | CC(=O)O[C@@H]1C(=O)C2=C([C@@H](O)C[C@H]3C(C)(C)[C@@H](O)CC[C@]23C)[C@]2(C)C(=O)C[C@H]([C@H](C)CC(=O)CC(C)C(=O)O)[C@@]12C (stereo partly drawn) [GANODERIC ACID K] | > 300 µM | –
34 | C/C(=C\CC[C@@H](C)[C@H]1CC[C@@]2(C)C3=C([C@H](O)C[C@]12C)[C@@]1(C)CCC(=O)C(C)(C)[C@@H]1CC3=O)C(=O)O | 101 µM | –
35 | CC(=O)O[C@@H]1C(=O)C2=C(C(=O)C[C@H]3C(C)(C)C(=O)CC[C@]23C)[C@]2(C)C(=O)C[C@H]([C@H](C)CC(=O)CC(C)C(=O)O)[C@@]12C (stereo partly drawn) [GANODERIC ACID F] | > 300 µM | –
36 | C/C(=C\CC[C@@H](C)[C@H]1CC[C@@]2(C)C3=CC[C@H]4C(C)(C)[C@@H](O)CC[C@]4(C)C3=CC[C@]12C)C(=O)O [GANODERIC ACID Y] | 11 µM | –
37 | CC(CC(=O)C[C@@H](C)[C@H]1C[C@H](O)[C@@]2(C)C3=C(C(=O)C[C@]12C)[C@@]1(C)CC[C@H](O)C(C)(C)[C@@H]1C[C@@H]3O)C(=O)O (stereo partly drawn) | 101 µM | –
38 | CC(=O)O[C@H]1CC[C@]2(C)C3=C(CC[C@H]2C1(C)C)[C@]1(C)CC[C@H]([C@@H](CCC=C(C)C)C(=O)O)[C@@]1(C)CC3 [ACETYL TRAMETENOLIC ACID] | – | IC50 (HL-60): 25 µM
39 | C/C(=C\CC[C@@H](C)[C@H]1CC[C@@]2(C)C3=C([C@@H](O)C[C@]12C)[C@@]1(C)CCC(=O)C(C)(C)[C@@H]1CC3=O)C(=O)O | 11 µM | –
40 | CC(=O)O[C@@H]1C(=O)C2=C(C(=O)C[C@H]3C(C)(C)[C@@H](O)CC[C@]23C)[C@]2(C)C(=O)C[C@H]([C@H](C)CC(=O)CC(C)C(=O)O)[C@@]12C (stereo partly drawn) [GANODERIC ACID H] | > 300 µM | –
41 | C/C(=C\CC[C@@H](C)[C@H]1C[C@H](O)[C@@]2(C)C3=C(C(=O)C[C@]12C)[C@@]1(C)CCC(=O)C(C)(C)[C@@H]1CC3)C(=O)O [GANOLUCIDIC ACID E] | 11 µM | –
42 | CC(=O)O[C@@H]1C(=O)C2=C([C@@H](O)C[C@H]3C(C)(C)[C@@H](O)CC[C@]23C)[C@]2(C)C(=O)C[C@H](/C(C)=C\C(=O)CC(C)C(=O)O)[C@@]12C (stereo partly drawn) | 101 µM | –
43 | CC(C)=CCC[C@@H](C=O)[C@H]1CC[C@@]2(C)C3=C(CC[C@]12C)[C@@]1(C)CC[C@H](O)C(C)(C)[C@@H]1CC3 | – | IC50 (L1210): 34.4 µM
44 | CC(C)=CCC[C@@H](C(=O)O)[C@H]1CC[C@@]2(C)C3=C(CC[C@]12C)[C@@]1(C)CC[C@H](O)C(C)(C)[C@@H]1CC3 [TRAMETENOLIC ACID] | – | IC50 (L1210): 62.5 µM
45 | C/C(=C\CC[C@@H](C)[C@H]1CC[C@@]2(C)C3=C(CC[C@]12C)[C@@]1(C)CC[C@H](O)C(C)(C)[C@@H]1CC3=O)C(=O)O | > 300 µM | –
46 | C/C(=C\C(=O)CC(C)C(=O)O)[C@H]1CC(=O)[C@@]2(C)C3=C(C(=O)C[C@]12C)[C@@]1(C)CC[C@H](O)C(C)(C)[C@@H]1C[C@@H]3O (stereo partly drawn) [GANODERENIC ACID B] | 202 µM | –
